The subject of series [1] is Escherichia coli P-5101. Briefly: In vivo therapeutic efficacy against systemic infections in mice. Also on record: species or system mice (ddY). The settings on record: P5101, 168 h; systemic infection, Escherichia coli P-5101, male mice, po, twice (about 5 minutes and 6 hours after infection), 7 days, Behrens-Kaerber; read-out: median effective dose (ED50). The protocol: (§1) Compounds 1 and A were each suspended in a 0.2% aqueous solution of sodium carboxymethyl cellulose. Each of the solutions was orally administered to mice infected with each of the test organisms under the conditions described below, and the median effective doses (ED50) obtained are shown in Table II. Male mice (ddY) weighing about 20 g (1) Escherichia coli P-5101: Intraperitoneal infection with about 9×10^6 cells per mouse suspended in trypto-soy broth with 4% mucin. Twice, about 5 minutes and 6 hours after infection. for 7 days. | The numerals in the table show ED50 (mg/kg). ED50 values were | calculated in accordance with the BehrensKaerber method (Arch. Exp. Path. | Pharm., 162, 480 (1931)). | po: oral administration.

Series [2] has as its system Pseudomonas aeruginosa No. 12. Briefly: In vivo therapeutic efficacy against dermal infections. Details: species or system mice (ddY-S). The following applies: NO.12, 96 h, dermal infection, female mice, po, 6 times (0, 3, 6, 24, 27, 30 hours), abscess on 4th day, probit analysis. As to the method: Female mice (ddY-S) weighing 21 to 26 g were subcutaneously infected at the dorsal skin with approximate 9×10^6 viable cells of Pseudomonas aeruginosa No. 12 in 0.2 ml physiological saline. Medication was performed 6 times; 0, 3, 6, 24, 27, and 30 hours after infection. The appearance of skin abscess at the inoculated site was examined on the 4th day after infection and mice bearing no abscess were regarded as protected from the infection. ED50 was calculated by probit analysis.

For series [3], the system named is Pseudomonas aeruginosa No. 12. Briefly: In vitro antibacterial activity (MIC), twofold agar-dilution method. The series is classed as cell-based. The following applies: Pseudomonas aeruginosa No. 12, twofold agar-dilution; read-out: minimum inhibitory concentration (MIC). The protocol:
(§2) The minimum inhibitory concentrations (MIC: μg/ml) of the following compounds were measured by the twofold agar-dilution method according to the procedure described in Chemotherapy, Vol. 29, No. 1, page 76 (1981).

In series [4] the test system is Pseudomonas aeruginosa Tsuchiijima. The description is as above. The series is classed as cell-based. The settings on record: read-out: minimum inhibitory concentration (MIC). The protocol:
as §2

In another series the test system is Enterobacter cloacae 963. Described as above. The settings on record: Enterobacter cloacae 963, twofold agar-dilution; read-out: minimum inhibitory concentration (MIC). The series is classed as cell-based. The protocol:
as §2

Series [5] relates to Escherichia coli P-5101. The description is as above. The series is classed as cell-based. The following applies: P5101; Escherichia coli P-5101, twofold agar-dilution; read-out: minimum inhibitory concentration (MIC). As to the method:
as §2

The test system of series [6] is Serratia marcescens IFO 3736. Described as above. The series is classed as cell-based. The settings on record: IFO3736; Serratia marcescens IFO 3736, twofold agar-dilution; read-out: minimum inhibitory concentration (MIC). As to the method: as §2
The test system of series [7] is Salmonella typhimurium S-9. Described as above. The series is classed as cell-based. The settings on record: Salmonella enterica; Salmonella typhimurium S-9, twofold agar-dilution; read-out: minimum inhibitory concentration (MIC). As to the method: as §2
The subject of series [8] is Salmonella enteritidis No. 1891. Described as above. The series is classed as cell-based. The settings on record: Salmonella enterica; Salmonella enteritidis No. 1891, twofold agar-dilution; read-out: minimum inhibitory concentration (MIC). As to the method: as §2
A further series deals with Proteus morganii Kono. Described as above. The series is classed as cell-based. The following applies: Morganella morganii, read-out: minimum inhibitory concentration (MIC). The protocol: as §2
Series [9] relates to Klebsiella pneumoniae No. 13. The description is as above. The series is classed as cell-based. The following applies: Klebsiella pneumoniae No. 13, twofold agar-dilution; read-out: minimum inhibitory concentration (MIC). The protocol:
as §2

In series [10] the test system is Escherichia coli NIHJ JC-2. The series is described as above. The series is classed as cell-based. The settings on record: NIHJJC2; Escherichia coli NIHJ JC-2, twofold agar-dilution; read-out: minimum inhibitory concentration (MIC). The protocol: as §2
The next series relates to Shigella flexneri 2a. The description is as above. The following applies: read-out: minimum inhibitory concentration (MIC). The series is classed as cell-based. The protocol: as §2
Series [11] concerns Proteus mirabilis IFO 3849-4. The description is as above. The series is classed as cell-based. The following applies: IFO3849; Proteus mirabilis IFO 3849-4, twofold agar-dilution; read-out: minimum inhibitory concentration (MIC). As to the method: as §2
In series [12] the test system is Pseudomonas aeruginosa No. 12. The series can be described thus: In vivo therapeutic efficacy against systemic infections in mice. Details: species or system mice (ddY). The settings on record: 168 h; systemic infection, Pseudomonas aeruginosa No. 12, male mice, po, twice (about 5 minutes and 6 hours after infection), 7 days, Behrens-Kaerber; read-out: median effective dose (ED50). As to the method: as §1, with “(2) Pseudomonas aeruginosa No. 12:” for “(1) Escherichia coli P-5101:”, “4×10^3” for “9×10^6”

For series [13], the system named is Pseudomonas aeruginosa No. 12. The series can be described thus: In vivo therapeutic efficacy against ascending kidney infection. Details: species or system mice (Std:ddY-S). The settings on record: NO.12, 120 h, female mice, po, twice a day for 3 days, kidneys on 5th day, probit analysis. The protocol: Compounds 1 and A were tested by the following procedure for therapeutic efficacy against the ascending kidney infection with Pseudomonas aeruginosa No. 12 in mice. Female mice (Std:ddY-S) weighing 22 to 30 g were anesthetized by intravenous injection of sodium pentobarbital at a dose of 50 mg/kg. Through a small suprapubic incision, the urinary bladder was exposed and then infected by injecting 0.1 ml of a 1:10,000 dilution of Pseudomonas aeruginosa No. 12 cultured for 20 hours in trypto-soy broth, using a 0.25 ml syringe with a 0.25 mm needle. The mice were restrained from drinking water for a period from 1 day before to 1 day after the infection. The compound 1 or A was administered orally twice a day for 3 days starting on the day of infection. On the 5th day after infection, the kidneys were harvested for the detection of the bacteria, transversely bisected and stamped on King A agar, which were incubated at 37° C. overnight. No bacterial finding in the kidneys was regarded as protected from the ascending kidney infection. ED50 values were calculated by probit analysis.

In series [14] the test system is Pseudomonas aeruginosa No. 12. Briefly: In vivo therapeutic efficacy against pulmonary infection in mice. Details: species or system mice (ddY-S). The following applies: NO.12, 120 h, female mice, po, 0, 1 and 3 hours after infection, survival on 5th day, probit analysis. The protocol:
(§3) Female mice (ddY-S) weighing 18 to 26 g were intranasally intected with 4 drops of a bacterial suspension* in physiological saline. Drugs suspended in 0.2% sodium carboxymethyl cellulose were orally administered 0, 1, and 3 hours after infection. Survival rates were determined on the 5th day after infection. ED50 was calculated by probit analysis.
*Pseudomonas aeruginosa No. 12--2.0×10^7 cells/mouse

Another series relates to Gram-negative bacteria. Briefly: In vivo antibacterial efficacy (Tables II to V), overall comparison. Also on record: species or system mice. The settings on record: compound 1 compared with compound A.
Excerpt: Compounds 1 and A were each suspended in a 0.2% aqueous solution of sodium carboxymethyl cellulose. Each of the solutions was orally administered to mice infected with each of the test organisms under the conditions described below, and the median effective doses (ED50) obtained are shown in Table II.
as §3
Female mice (Std:ddY-S) weighing 22 to 30 g were anesthetized by intravenous injection of sodium pentobarbital at a dose of 50 mg/kg. Through a small suprapubic incision, the urinary bladder was exposed and then infected by injecting 0.1 ml of a 1:10,000 dilution of Pseudomonas aeruginosa No. 12 cultured for 20 hours in trypto-soy broth, using a 0.25 ml syringe with a 0.25 mm needle. […] ED50 values were calculated by probit analysis.
Female mice (ddY-S) weighing 21 to 26 g were subcutaneously infected at the dorsal skin with approximate 9×10^6 viable cells of Pseudomonas aeruginosa No. 12 in 0.2 ml physiological saline. […] ED50 was calculated by probit analysis.

Series [15] can be described thus: Acute oral toxicity in mice. The settings on record: mouse, in vivo, male mice, deaths after 7 days, Behrens-Kaerber, read-out: median lethal dose (LD50). As to the method: A solution containing compound 1 in various concentrations was orally given to male mice (ddY-S) at a volume of 0.1 ml per 10 g of body weight. The number of dead mice was counted after 7 days, and the value of median lethal dose (LD50; mg/kg) was calculated in accordance with the Behrens-Kaerber method.

In brackets after ≈: the same amount, converted by molar mass.

These results are taken from patent US4382937A, “Naphthyridine derivatives and their use as anti-bacterials” (Dainippon Pharmaceutical Co., Ltd., priority 1981, dated 1983).

`CCn1cc(C(=O)O)c(=O)c2cc(F)c(N3CCC(N)C3)nc21` (stereo not drawn) [A, 7-(3-Amino-1-pyrrolidinyl)-1-ethyl-6-fluoro-1,4-dihydro-4-oxo-1,8-naphthyridine-3-carboxylic acid, reference compound]: the ED50 is 1.6 mg/kg with Escherichia coli P-5101 [1]; 11.7 mg/kg in series [2]; 6.7 mg/kg in [12]; 3 mg/kg in [13]; 19.7 mg/kg in series [14]. The MIC in [3] stood at 0.39 µg/mL (≈ 1.22 µM); in series [4], 0.39 µg/mL (≈ 1.22 µM); in the series on Enterobacter cloacae 963, 0.2 µg/mL (≈ 0.624 µM); in the series with Escherichia coli P-5101 [5] it was 0.05 µg/mL (≈ 0.156 µM); in [6], 0.2 µg/mL (≈ 0.624 µM); in series [7], 0.1 µg/mL (≈ 0.312 µM). In addition, the MIC in [8] came to 0.05 µg/mL (≈ 0.156 µM); in the series with Proteus morganii Kono it was 0.2 µg/mL (≈ 0.624 µM); in series [9], 0.2 µg/mL (≈ 0.624 µM); in series [10] it was 0.1 µg/mL (≈ 0.312 µM); with Shigella flexneri 2a it was 0.1 µg/mL (≈ 0.312 µM); in series [11], 0.39 µg/mL (≈ 1.22 µM).

On to `C=Cn1cc(C(=O)O)c(=O)c2cc(F)c(N3CCC(N)C3)nc21` (stereo not drawn) [Compound 1, 7-(3-Amino-1-pyrrolidinyl)-6-fluoro-1,4-dihydro-4-oxo-1-vinyl-1,8-naphthyridine-3-carboxylic acid], for which the ED50 with Escherichia coli P-5101 [1] was 0.8 mg/kg; in series [2], 2.4 mg/kg; in series [12], 1.8 mg/kg; in [13], 0.5 mg/kg; in [14] it was 6.3 mg/kg. Further, in the series on Gram-negative bacteria, the “in vivo antibacterial efficacy against Gram-negative bacteria” value was “much better in vivo antibacterial efficacy against Gram-negative bacteria than the compound A”. The MIC in [3] amounted to 0.2 µg/mL (≈ 0.628 µM); in series [4], 0.2 µg/mL (≈ 0.628 µM); with Enterobacter cloacae 963, 0.05 µg/mL (≈ 0.157 µM); in the series with Escherichia coli P-5101 [5] it was 0.025 µg/mL (≈ 0.0785 µM); in series [6], 0.2 µg/mL (≈ 0.628 µM); in series [7], 0.05 µg/mL (≈ 0.157 µM). Besides, the MIC in series [8] came to 0.025 µg/mL (≈ 0.0785 µM); in the series with Proteus morganii Kono it was 0.05 µg/mL (≈ 0.157 µM); in series [9], 0.1 µg/mL (≈ 0.314 µM); in series [10] it was 0.025 µg/mL (≈ 0.0785 µM); in the series with Shigella flexneri 2a, 0.025 µg/mL (≈ 0.0785 µM); in series [11], 0.2 µg/mL (≈ 0.628 µM). Further, the LD50 at 168 h in series [15] was over 4000 mg/kg.
